The text below walks through data of patent US5658885A, “Amidino and guanidino substituted boronic acid inhibitors of trypsin-like enzymes” (The DuPont Merck Pharmaceutical Company, priority 1994, dated 1997).

Where a name gives a salt, the structure may show the parent alone. Bounds are passed on as bounds.

Assay [1] has as its target T1, human thrombin (Homo sapiens, UniProt P00734).
T1 construct: 0.2-0.5 nM human thrombin or human factor Xa; purchased Enzyme Research Laboratories, South Bend, Ind
Nature of the assay: Inhibition of thrombin hydrolysis of chromogenic substrate S2238 (Ki). The format is biochemical. The conditions noted are these: S2238, pH 7.5. Put shortly: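 Purified human enzymes hydrolysing pNA substrates (thrombin S2238, factor Xa S2222, factor VIIa S2288), followed by absorbance at 405 nm over 30 min with velocities taken at 25-30 min. Thrombin and Xa were run in 0.10 M phosphate pH 7.5, 0.20 M NaCl, 0.5% PEG 8000. VIIa was run in 0.05 M Tris pH 7.6, 0.10 M NaCl, 4 mM CaCl2, 0.1% BSA, with Ki calculated from inhibited versus control velocities using substrate concentration and Km.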

The test system of assay [2] is thrombin clotting times. Nature of the assay: Thrombin clotting time, concentration for 2-fold increase. The following applies: 2-fold increase of thrombin clotting time. The format is biochemical.
The target of assay [3] is T2, human factor VIIa (Homo sapiens, UniProt P08709).
T2 construct: 50 nM human factor VIIa (BiosPacific, Emeryville, Calif.); purchased BiosPacific, Emeryville, Calif
T2 sequence (P08709 213-466 limits assumed): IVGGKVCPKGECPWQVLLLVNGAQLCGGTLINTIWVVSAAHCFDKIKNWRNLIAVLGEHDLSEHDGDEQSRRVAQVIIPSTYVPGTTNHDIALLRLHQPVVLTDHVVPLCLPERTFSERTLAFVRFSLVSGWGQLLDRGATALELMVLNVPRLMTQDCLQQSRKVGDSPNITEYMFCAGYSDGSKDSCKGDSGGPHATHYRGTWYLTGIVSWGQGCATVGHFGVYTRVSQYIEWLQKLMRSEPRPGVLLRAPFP
T2 sequence (P08709 61-212 limits assumed): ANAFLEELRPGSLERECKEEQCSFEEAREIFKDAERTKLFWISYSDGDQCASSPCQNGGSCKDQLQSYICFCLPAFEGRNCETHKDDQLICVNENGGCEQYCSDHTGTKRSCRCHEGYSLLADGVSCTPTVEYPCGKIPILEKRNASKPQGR
Description: Inhibition of Factor VIIa hydrolysis of chromogenic substrate S2288 (Ki). The format is biochemical. The conditions noted are these: S2288, pH 7.6. As to the method: (§1) The effectiveness of compounds of the present invention as inhibitors of blood coagulation proteases was determined using purified human proteases and synthetic substrates following procedures similar to those described in Kettner et al. (1990).
(§2) For these assays, the rate of enzymatic (thrombin, Factor Xa, and Factor VIIa) hydrolysis of chromogenic substrates (S2238 (H-D-Phe-Pip-Arg-pNA), S2222, and S2288, respectively; Kabi Pharmacia, Franklin, Ohio) was measured both in the absence and presence of compounds of the present invention. […] A decrease in the rate of absorbance change at 405 nm in the presence of inhibitor is indicative of enzyme inhibition. The results of this assay are expressed as inhibitory constant, Ki.
(§3) Thrombin and Xa determinations were made in 0.10M sodium phosphate buffer, pH 7.5, containing 0.20M NaCl, and 0.5% PEG 8000. VIIa determinations were made in 0.05M tris buffer, pH 7.6, containing 0.10M NaCl, 4 mM CaCl2, and 0.1% bovine serum albumin.
(§4) Reactions were allowed to go for 30 minutes and the velocities (rate of absorbance change vs time) were measured in the time frame of 25-30 minutes. The following relationship was used to calculate Ki values. [formula] where: vo is the velocity of the control in the absence of inhibitor;
(§5) vs is the velocity in the presence of inhibitor;
(§6) I is the concentration of inhibitor;
(§7) Ki is the dissociation constant of the enzyme: inhibitor complex;
(§8) S is the concentration of substrate;
(§9) Km is the Michaelis constant.

Assay [4] has as its target T3, human factor Xa (Homo sapiens, UniProt P00742).
T3 construct: 0.2-0.5 nM human thrombin or human factor Xa; purchased Enzyme Research Laboratories, South Bend, Ind
Description: Inhibition of Factor Xa hydrolysis of chromogenic substrate S2222 (Ki). The format is biochemical. The conditions noted are these: S2222, pH 7.5. As to the method: as §1, §2, §3, §4, §5, §6, §7, §8, §9

Assay [5] concerns activated partial thromboplastin time. Description: Anticoagulant effect in vivo: prolongation of activated partial thromboplastin time of blood samples after dosing. Also noted: species or system conscious dogs or anesthetized rats. The conditions noted are these: 0.5 to 10 mg/kg, dogs or rats. As to the method: Arterial or venous blood was withdrawn by syringe and mixed with 1/10 volume 3.2% sodium citrate. Plasma was obtained after centrifugation and a standard clinical activated partial thromboplastin time (APTT reagent, Sigma Chemical Co., St. Louis, Mo.) determined at 37° C. in a fibrometer.

The target in assay [6] is chymotrypsin (Bos taurus, UniProt P00766). The conditions noted are these: Matteson et al. J. Am. Chem. Soc. 103: 5241 (1981); cited from earlier work.
The subject of assay [7] is thrombin clotting times. Description: Anticoagulant effect in vivo: identical model, activity measured by increases in thrombin clotting times. Also noted: species or system conscious dogs or anesthetized rats. The following applies: oral administration.

T3 sequence (P00742 235-488 limits assumed): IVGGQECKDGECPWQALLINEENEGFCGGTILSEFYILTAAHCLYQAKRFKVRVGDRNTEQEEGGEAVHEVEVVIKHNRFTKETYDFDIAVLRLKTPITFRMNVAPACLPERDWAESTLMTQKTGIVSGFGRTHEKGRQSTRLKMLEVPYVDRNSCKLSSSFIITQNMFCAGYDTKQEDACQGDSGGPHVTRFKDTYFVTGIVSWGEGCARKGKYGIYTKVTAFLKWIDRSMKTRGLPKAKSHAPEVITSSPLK
T3 sequence (P00742 41-179 limits assumed): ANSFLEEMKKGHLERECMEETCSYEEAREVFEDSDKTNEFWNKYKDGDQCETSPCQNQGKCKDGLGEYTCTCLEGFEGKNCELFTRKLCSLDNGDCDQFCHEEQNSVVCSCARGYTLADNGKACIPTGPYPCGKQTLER

In assay [1], `CC(=O)NC(Cc1ccccc1)C(=O)N1CCCC1C(=O)NC(Cc1cccc(C(=N)N)c1)B1OC2CC3CC(C3(C)C)C2(C)O1.O=S(=O)(O)c1ccccc1` (centres unmarked) [Example 12, Ac--(D)Phe--Pro--boroPhe--(m-C(NH)NH2)--C10 H16.BSA] gave a Ki of under 500 nM. In assay [2], the “concentration that increased thrombin clotting times 2-fold” value came to 0.85 µM.

As to “Ac--(D)Phe--Pro--boroOrn(CH=NH)]--OH.HCl [Example 4]”, the Ki in assay [3], in assay [4] and in assay [1] was under 500 nM each time. For the same molecule, the “anticoagulant response (at least doubling of activated partial thromboplastin time vs. pre-dose)” value in assay [5] (i.v. dosing) and in assay [5] (oral dosing) was “effective” each time.

Regarding “Boc--(D)Phe--Pro--boroOrn(CH=NH)]--OH.0.6 HCl.0.4 BSA [Example 7]”, the Ki in assay [3], in assay [4] and in assay [1] was under 500 nM each time. Besides, the “concentration that increased thrombin clotting times 2-fold” value in assay [2] was under 0.075 µM.

For “H--(D)Phe--Pro--boroOrn(CH=NH)]--OH.0.65 HCl.0.35 BSA [Example 9]”, the Ki in assay [1] is under 500 nM. In addition, the “concentration that increased thrombin clotting times 2-fold” value in assay [2] is 0.10 µM.

With `CCCCS(=O)(=O)NC(Cc1ccccc1)C(=O)N1CCCC1C(=O)NC(CCCNC=N)B(O)O.Cl` (centres unmarked) [Example 66, CH3 (CH2)3 SO2 --(D)Phe--Pro--boroOrn(CH=NH)--OH.HCl], in assay [1], the Ki is under 500 nM. For the same molecule, the “anticoagulant response (at least doubling of activated partial thromboplastin time vs. pre-dose)” value in assay [5] (oral dosing) was “effective”.

In the case of `Cl.N=CNCCCC(NC(=O)C1CCCN1C(=O)C(Cc1ccccc1)NC(=O)OCc1ccccc1)B(O)O` (centres unmarked) [Example 77, Z--(D)Phe--Pro--boroOrn(CH=NH)--OH.HCl], the “anticoagulant response (at least doubling of activated partial thromboplastin time vs. pre-dose)” value in assay [5] (i.v. dosing) is given as “effective”.

`CS(=O)(=O)N[C@H](Cc1ccccc1)C(=O)N1CCC[C@H]1C(=O)N[C@@H](CCCNC=N)B(O)O.Cl` [Example 57, Ms--(D)Phe--Pro--boroOrn(CH=NH)--OH.HCl] yielded a Ki in assay [1] of under 500 nM. For the same molecule, the “anticoagulant response (at least doubling of activated partial thromboplastin time vs. pre-dose)” value in assay [5] (i.v. dosing) and in assay [5] (oral dosing) was “effective” in each case.

As to `CC(=O)N[C@H](Cc1ccccc1)C(=O)N1CCC[C@H]1C(=O)N[C@@H](Cc1cccc(C#N)c1)B(O)O` [Example 23, Ac--(D)Phe--Pro--boroPhe--(m-CN)--OH.HCl], the Ki was under 500 nM in assay [3], under 50000 nM in assay [4] and under 500 nM in assay [1].

For `CC(=O)N[C@@H](Cc1ccccc1)B(O)O` [Ac-boroPhe--OH, R-1-acetamido-2-phenylethane boronic acid], the Ki in assay [6] was 4000 nM.

In assay [1], `CC(=O)NC(Cc1ccccc1)C(=O)N1CCCC1C(=O)NC(CCCNC=N)B1OC2CC3CC(C3(C)C)C2(C)O1.Cl` (centres unmarked) [Example 3, Ac--(D)Phe--Pro--boroOrn(CH=NH)]--C10 H16.HCl] came in with a Ki of under 500 nM. In addition, the “concentration that increased thrombin clotting times 2-fold” value in assay [2] was 0.25 µM.

With “Ms--(D)Thiazolylalanine-Pro--boroPhe(m-CN)--C10 H16 [Example 31]”, the Ki in assay [4] and in assay [1] was under 500 nM throughout. Besides, the “elevation in anticoagulant activity measured by increases in thrombin clotting times” value in assay [7] is listed as at least 2 fold.

For the molecule `CC(=O)NC(Cc1ccccc1)C(=O)N1CCCC1C(=O)NC(Cc1cccc(C#N)c1)B1OC2CC3CC(C3(C)C)C2(C)O1` (centres unmarked) [Example 11, Ac--(D)Phe--Pro--boroPhe--(m-CN)--C10 H16], the values for the Ki in assay [3], in assay [4] and in assay [1] were under 500 nM, under 50000 nM and under 500 nM, respectively. Also, the “concentration that increased thrombin clotting times 2-fold” value in assay [2] came out at 0.60 µM.

Consider `N=CNCCCC(NC(=O)C1CCCN1C(=O)CCc1ccccc1)B(O)O` (centres unmarked) [Example 48], for which the Ki is under 500 nM in assay [3], under 50000 nM in assay [4] and under 500 nM in assay [1].

“Ms--(D)Phe--Pro--boroArg(CH3)--OH.HCl [Example 56]”: the Ki in assay [1] was under 500 nM. For the same molecule, in assay [5] (oral dosing), the “anticoagulant response (at least doubling of activated partial thromboplastin time vs. pre-dose)” value was “effective”.

In the case of `CC(C)(C)OC(=O)NC(Cc1cccs1)C(=O)N1CCCC1C(=O)NC(Cc1cccc(C#N)c1)B1OC2CC3CC(C3(C)C)C2(C)O1` (centres unmarked) [Example 36, Boc--(D)2-Thienylalanine-Pro--boroPhe(m-CN)--C10 H16], the Ki in assay [3], in assay [4] and in assay [1] was under 500 nM each time.

The molecule `CS(=O)(=O)N[C@H](Cc1ccc(F)cc1)C(=O)N1CCC[C@H]1C(=O)N[C@@H](CCCNC=N)B(O)O.Cl` [Example 60, Ms--(D)Phe(4-fluoro)-Pro--boroOrn(CH=NH)--OH.HCl] returned a Ki in assay [1] of under 500 nM. In assay [5] (oral dosing), the “anticoagulant response (at least doubling of activated partial thromboplastin time vs. pre-dose)” value is “effective”.

“Ac--(D)Phe--Pro--boroArg(CH3)--OH.HCl [Example 54]” displayed an inhibitory constant (Ki) in assay [1] of under 500 nM. Further, the “elevation in anticoagulant activity measured by increases in thrombin clotting times” value in assay [7] is on record as at least 2 fold.

By Ki is commonly meant a dissociation constant, usually derived from enzyme kinetics or from competition with a known ligand.
